Publication PMC2000878, “Module structure of interphotoreceptor retinoid-binding protein (IRBP) may provide bases for its complex role in the visual cycle – structure/function study of Xenopus IRBP” (BMC Biochemistry, 2007)

What was measured:
full-length Xenopus IRBP [1] = molecular target: T1, full-length Xenopus IRBP (Xenopus laevis, UniProt Q7SZI7); assay: Competitive fluorescence titration of all-trans retinol with 11-cis retinaldehyde; assay type: binding
T1 construct: We expressed the full-length IRBP as well as its individual modules as thioredoxin-fusion proteins using pTrxFus and pThioHis vectors; made in house; host or cells: E. coli Top10 (pThioHis)
Text: In Figure 8B, full-length Xenopus IRBP was titrated with all-trans retinol in the presence of different fixed concentrations of 11-cis retinaldehyde. Binding of all-trans retinol to Xenopus IRBP was followed by monitoring the enhancement of its fluorescence. […] Equation 3 (see methods) was used to analyze the data generating the 3-dimensional representation of the fit shown graphically in Figure 8B.
To describe the displacement of all-trans retinol by 11-cis retinaldehyde, Equation 1 was modified to take into account the competition between the two ligands. The apparent dissociation constants for all-trans retinol measured under these conditions is related to the dissociation constant of 11-cis retinaldehyde through the following expression.
Kapp=Kdall−trans[1+Rt11−cis/Kd11−cis] MathType@MTEF@5@5@+=feaafiart1ev1aaatCvAUfKttLearuWrP9MDH5MBPbIqV92AaeXatLxBI9gBaebbnrfifHhDYfgasaacH8akY=wiFfYdH8Gipec8Eeeu0xXdbba9frFj0=OqFfea0dXdd9vqai=hGuQ8kuc9pgc9s8qqaq=dirpe0xb9q8qiLsFr0=vr0=vr0dc8meaabaqaciaacaGaaeqabaqabeGadaaakeaacqWGlbWsdaWgaaWcbaGaemyyaeMaemiCaaNaemiCaahabeaakiabg2da9iabdUealnaaDaaaleaacqWGKbazaeaacqWGHbqycqWGSbaBcqWGSbaBcqGHsislcqWG0baDcqWGYbGCcqWGHbqycqWGUbGBcqWGZbWCaaGcdaWadaqaaiabigdaXiabgUcaRmaalaaabaGaemOuai1aa0baaSqaaiabdsha0bqaaiabigdaXiabigdaXiabgkHiTiabdogaJjabdMgaPjabdohaZbaaaOqaaiabdUealnaaDaaaleaacqWGKbazaeaacqaIXaqmcqaIXaqmcqGHsislcqWGJbWycqWGPbqAcqWGZbWCaaaaaaGccaGLBbGaayzxaaaaaa@58DE@
The origin of the above expression is discussed in reviews dealing with competition assays. Substitution of equation 2 into equation 1 yields the following expression.
Fenh=C1+C2[Rtall−trans−(Rtall−trans+NPt+Kdall−trans+Kdall−transRt11−cis/Kd11−cis)^2−4NPtRtall−trans] […]

full-length Xenopus IRBP [2] = molecular target: T1, full-length Xenopus IRBP; assay: Fluorometric titration (ligand fluorescence enhancement, protein quenching, energy transfer); assay type: binding
Text: The binding parameters of retinoid-binding proteins including IRBP may be determined by fluorescence spectroscopy. The method utilizes changes in quantum yield occurring during ligand binding. Such changes are represented by enhancement of ligand fluorescence, quenching of intrinsic protein fluorescence, and transfer of energy from protein to bound ligand. Fluorescence enhancement occurs if the quantum yield of the ligand's fluorescence is higher in the hydrophobic environment of the ligand-binding domain compared to that outside of the domain.
[…] We previously derived an equation that is generally useful for describing such quantum yield changes that are consequent upon ligand binding. This equation has been previously applied to the analysis of binding by monitoring the enhancement of retinol fluorescence. In this case, […], the fluorescence enhancement (Fenh) depends on the total retinol concentration (Rt), the dissociation constant (Kd ^all-trans), the number of retinol-binding sites per protein molecule (N) and the total protein concentration (Pt).
Assuming that there is a single type of noninteracting site on the protein, (Fenh) is expected to be linearly related to the concentration of bound retinol molecules. Fenh is given by the relation
Fenh=C1+C2[Rtall−trans−(Rtall−trans+NPt+Kdall−trans)^2−4NPtRtall−trans] MathType@MTEF@5@5@+=feaafiart1ev1aaatCvAUfKttLearuWrP9MDH5MBPbIqV92AaeXatLxBI9gBaebbnrfifHhDYfgasaacH8akY=wiFfYdH8Gipec8Eeeu0xXdbba9frFj0=OqFfea0dXdd9vqai=hGuQ8kuc9pgc9s8qqaq=dirpe0xb9q8qiLsFr0=vr0=vr0dc8meaabaqaciaacaGaaeqabaqabeGadaaakeaacqWGgbGrdaWgaaWcbaGaemyzauMaemOBa4MaemiAaGgabeaakiabg2da9iabdoeadnaaBaaaleaacqaIXaqmaeqaaOGaey4kaSIaem4qam0aaSbaaSqaaiabikdaYaqabaGcdaWadaqaaiabdkfasnaaDaaaleaacqWG0baDaeaacqWGHbqycqWGSbaBcqWGSbaBcqGHsislcqWG0baDcqWGYbGCcqWGHbqycqWGUbGBcqWGZbWCaaGccqGHsisldaGcaaqaamaabmaabaGaemOuai1aa0baaSqaaiabdsha0bqaaiabdggaHjabdYgaSjabdYgaSjabgkHiTiabdsha0jabdkhaYjabdggaHjabd6gaUjabdohaZbaakiabgUcaRiabd6eaojabdcfaqnaaBaaaleaacqWG0baDaeqaaOGaey4kaSIaem4saS0aa0baaSqaaiabdsgaKbqaaiabdggaHjabdYgaSjabdYgaSjabgkHiTiabdsha0jabdkhaYjabdggaHjabd6gaUjabdohaZbaaaOGaayjkaiaawMcaamaaCaaaleqabaGaeGOmaidaaOGaeyOeI0IaeGinaqJaemOta4Kaemiuaa1aaSbaaSqaaiabdsha0bqabaGccqWGsbGudaqhaaWcbaGaemiDaqhabaGaemyyaeMaemiBaWMaemiBaWMaeyOeI0IaemiDaqNaemOCaiNaemyyaeMaemOBa4Maem4CamhaaaqabaaakiaawUfacaGLDbaaaaa@8490@
The equation was fit to the data by nonlinear least-squares analysis. […] For the quenching studies the inner filter effect was accounted for by graphical correction as previously described. Fluorescence measurements were made using an SLM 8000TM C photon counting spectrofluorometer corrected for wavelength dependence of source energy and detector response.

T1 sequence (Q7SZI7 23-1219): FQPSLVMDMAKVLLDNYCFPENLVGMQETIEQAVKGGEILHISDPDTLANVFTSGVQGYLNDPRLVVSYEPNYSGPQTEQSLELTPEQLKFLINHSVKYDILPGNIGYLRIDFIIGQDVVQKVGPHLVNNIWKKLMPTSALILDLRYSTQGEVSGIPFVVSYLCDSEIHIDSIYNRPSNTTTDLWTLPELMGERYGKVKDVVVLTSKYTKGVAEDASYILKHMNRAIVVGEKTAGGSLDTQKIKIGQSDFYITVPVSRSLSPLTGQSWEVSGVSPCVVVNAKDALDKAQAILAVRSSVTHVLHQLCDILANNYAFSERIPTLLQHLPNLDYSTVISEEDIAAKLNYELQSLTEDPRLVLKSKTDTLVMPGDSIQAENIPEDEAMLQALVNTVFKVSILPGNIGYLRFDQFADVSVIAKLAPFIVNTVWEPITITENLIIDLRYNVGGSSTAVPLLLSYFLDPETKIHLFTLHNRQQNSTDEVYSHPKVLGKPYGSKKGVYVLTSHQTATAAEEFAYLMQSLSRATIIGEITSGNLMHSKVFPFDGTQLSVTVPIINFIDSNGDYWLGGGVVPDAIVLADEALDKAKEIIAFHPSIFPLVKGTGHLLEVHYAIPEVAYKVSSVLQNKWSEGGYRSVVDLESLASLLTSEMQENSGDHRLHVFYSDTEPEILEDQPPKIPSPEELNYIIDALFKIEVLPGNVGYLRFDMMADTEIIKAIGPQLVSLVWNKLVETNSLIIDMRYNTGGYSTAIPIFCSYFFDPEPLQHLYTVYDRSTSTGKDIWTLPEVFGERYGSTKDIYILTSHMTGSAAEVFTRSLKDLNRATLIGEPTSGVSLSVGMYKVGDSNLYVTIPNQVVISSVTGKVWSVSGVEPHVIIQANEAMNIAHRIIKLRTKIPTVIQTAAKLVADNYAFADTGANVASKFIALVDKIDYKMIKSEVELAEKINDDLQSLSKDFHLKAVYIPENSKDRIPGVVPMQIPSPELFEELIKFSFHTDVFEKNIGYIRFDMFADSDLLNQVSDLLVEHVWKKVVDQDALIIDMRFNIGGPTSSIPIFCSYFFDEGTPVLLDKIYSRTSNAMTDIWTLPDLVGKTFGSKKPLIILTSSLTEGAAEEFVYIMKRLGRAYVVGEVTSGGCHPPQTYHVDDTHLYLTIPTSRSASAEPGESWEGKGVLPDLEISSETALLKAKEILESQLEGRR

Kd (full-length Xenopus IRBP [1]; competition, in presence of fixed concentrations of 11-cis retinaldehyde, read-out: Kd All-trans retinol) [nM] | Binding sites (N), Enhancement (full-length Xenopus IRBP [2]; all-trans retinol fluorescence enhancement, ex 330 nm, em 480 nm, IRBP 0.65 μM) | Kd (full-length Xenopus IRBP [2]; all-trans retinol fluorescence enhancement, ex 330 nm, em 480 nm, IRBP 0.65 μM, read-out: Kd, Enhancement) [nM] | Binding sites (N), energy transfer (full-length Xenopus IRBP [2]; all-trans retinol, energy transfer, ex 280 nm, em 480 nm) | Kd (full-length Xenopus IRBP [2]; all-trans retinol, energy transfer, ex 280 nm, em 480 nm, read-out: Kd, energy transfer) [nM] | Binding sites (N), Quenching (full-length Xenopus IRBP [2]; quenching of protein fluorescence by all-trans retinol, ex 280 nm, em 340 nm) | Kd (full-length Xenopus IRBP [2]; quenching of protein fluorescence by all-trans retinol, ex 280 nm, em 340 nm, read-out: Kd, Quenching) [nM] | Kd (full-length Xenopus IRBP [2]; summary statement of the abstract, read-out: Kd (summary)) [nM] | Kd (full-length Xenopus IRBP [1]; competition with all-trans retinol, read-out: Kd 11-cis retinal) [nM] | Binding sites (N) (full-length Xenopus IRBP [1]; competition, sites assumed shared by all-trans retinol and 11-cis retinal) | Binding sites (N), Quenching (full-length Xenopus IRBP [2]; quenching of protein fluorescence by 11-cis retinaldehyde, ex 280 nm, em 340 nm) | Kd (full-length Xenopus IRBP [2]; quenching of protein fluorescence by 11-cis retinaldehyde, ex 280 nm, em 340 nm, read-out: Kd 11-cis, Quenching) [nM] | SMILES
220 ± 130 | 3.19 ± 0.10 | 300 ± 50 | 3.72 ± 0.20 | 290 ± 120 | 1.93 ± 0.41 | 660 ± 140 | 200 to 300 |  |  |  |  | CC1=C(/C=C/C(C)=C/C=C/C(C)=C/CO)C(C)(C)CCC1 [all-trans retinol]
 |  |  |  |  |  |  |  | 210 ± 100 | 3.53 ± 0.19 | 1.81 ± 0.15 | 280 ± 50 | CC1=C(/C=C/C(C)=C/C=C/C(C)=C/C=O)C(C)(C)CCC1 [11-cis retinal]
